Here are results for 13 compounds from patent US9580444B2, “Polycyclic pyrazolinone derivative and herbicide comprising same as effective component thereof” (priority 2013, dated 2017).

What all share (assay): Test Example-1: herbicidal effect by a treatment before weeds are generated under submerged conditions
Common to all, as to format: in vivo
What all share (conditions): 500 g a.i/ha, pre-emergence treatment, about 15 days after treatment, score 0-5

The test system of test [1] is Echinochloa oryzicola (barnyard grass). The protocol: (§1) Using the formulation prepared according to the methods described above, the herbicidal effect of the bicyclic pyrazolinone derivative of the invention according to the methods shown in Test Examples below was examined. The herbicidal effect with respect to the test weeds or the phytotoxicity with respect to the test crops was examined according to the following criteria, and evaluated in six stage scores of 0 to 5.
(§2) A plastic cup of 30 cm^2 was filled with paddy soil, soil puddling was performed, seeds of Echinochloa oryzicola (barnyard grass), Cyperus difformis (smallflower umbrella plant), Monochoria vaginalis (monochoria), Scirpus juncoides (bulrush), and Eleocharis acicularis (needle spikerush), and Lindernia procumbens (common false pimpernel), Rotala indica (indian toothcup), Elatine triandra (waterwort) as other annual broad leaf weeds were seeded therein, and kept in a submerged state. A wettable powder or an emulsifiable concentrate of the compound of the present invention prepared according to Formulation Example was diluted on the weed seeding day, and a submersing treatment was performed so as to be a predetermined dosage. The herbicidal effect with respect to the test weeds about 15 days after the treatment was evaluated according to the evaluation criteria in six stages of 0 to 5 described above.

For test [2], the system named is Monochoria vaginalis (monochoria). As for the experimental part: as §1, §2
For test [3], the system named is Eleocharis acicularis (needle spikerush). As for the experimental part:
as §1, §2

Test [4] deals with other annual broad leaf weeds (Lindernia procumbens, Rotala indica, Elatine triandra). As for the experimental part: as §1, §2
The subject of test [5] is Cyperus difformis (smallflower umbrella plant). As for the experimental part:
as §1, §2

For test [6], the system named is Scirpus juncoides (bulrush). The protocol:
as §1, §2

With `O=c1c(-c2cc(OC(F)F)c(Cl)cc2F)c(Cl)n2n1CCCC2` [Example 1-143], the “Herbicidal effect Echinochloa oryzicola” value in test [1] was 5 (Herbicidal effect/phytotoxicity was 90% or greater). The “Herbicidal effect Monochoria vaginalis” value in test [2] is reported as 5 (Herbicidal effect/phytotoxicity was 90% or greater). In test [3], the “Herbicidal effect Eleocharis acicularis” value is 5 (Herbicidal effect/phytotoxicity was 90% or greater). Further, the “Herbicidal effect Broadleaf weed” value in test [4] is 5 (Herbicidal effect/phytotoxicity was 90% or greater). Further, in test [5], the “Herbicidal effect Cyperus difformis” value is reported as 5 (Herbicidal effect/phytotoxicity was 90% or greater). Further, in test [6], the “Herbicidal effect Scirpus juncoides” value was 5 (Herbicidal effect/phytotoxicity was 90% or greater).
Turning to `O=c1c(-c2cc(OCC3CCCC3)c(Cl)cc2F)c(Cl)n2n1CCCC2` [Example 1-186], in test [1], the “Herbicidal effect Echinochloa oryzicola” value was 5 (Herbicidal effect/phytotoxicity was 90% or greater). For the same compound, the “Herbicidal effect Monochoria vaginalis” value in test [2] is recorded as 5 (Herbicidal effect/phytotoxicity was 90% or greater). Besides, in test [3], the “Herbicidal effect Eleocharis acicularis” value is on record as 5 (Herbicidal effect/phytotoxicity was 90% or greater). In addition, in test [4], the “Herbicidal effect Broadleaf weed” value is given as 5 (Herbicidal effect/phytotoxicity was 90% or greater). Further, in test [5], the “Herbicidal effect Cyperus difformis” value was 5 (Herbicidal effect/phytotoxicity was 90% or greater). Besides, the “Herbicidal effect Scirpus juncoides” value in test [6] is given as 5 (Herbicidal effect/phytotoxicity was 90% or greater).
Take `CC(C)CCOc1cc(-c2c(Cl)n3n(c2=O)CCCC3)c(F)cc1F` [Example 1-93]: the “Herbicidal effect Echinochloa oryzicola” value in test [1] is listed as 5 (Herbicidal effect/phytotoxicity was 90% or greater). The “Herbicidal effect Monochoria vaginalis” value in test [2] was 5 (Herbicidal effect/phytotoxicity was 90% or greater). For the same compound, the “Herbicidal effect Eleocharis acicularis” value in test [3] is 5 (Herbicidal effect/phytotoxicity was 90% or greater). Also, the “Herbicidal effect Broadleaf weed” value in test [4] is 5 (Herbicidal effect/phytotoxicity was 90% or greater). For the same compound, the “Herbicidal effect Cyperus difformis” value in test [5] is listed as 5 (Herbicidal effect/phytotoxicity was 90% or greater). Besides, the “Herbicidal effect Scirpus juncoides” value in test [6] is reported as 5 (Herbicidal effect/phytotoxicity was 90% or greater).
Take `C=C(COc1ccccc1Oc1cc(-c2c(Cl)n3n(c2=O)CCCC3)c(F)cc1Cl)c1cccc(Cl)c1` [Compound 3-26]: the “Herbicidal effect Echinochloa oryzicola” value in test [1] was 5 (Herbicidal effect/phytotoxicity was 90% or greater). Further, the “Herbicidal effect Monochoria vaginalis” value in test [2] is given as 5 (Herbicidal effect/phytotoxicity was 90% or greater). The “Herbicidal effect Eleocharis acicularis” value in test [3] is reported as 5 (Herbicidal effect/phytotoxicity was 90% or greater). The “Herbicidal effect Broadleaf weed” value in test [4] is 5 (Herbicidal effect/phytotoxicity was 90% or greater). Further, the “Herbicidal effect Cyperus difformis” value in test [5] is 5 (Herbicidal effect/phytotoxicity was 90% or greater). Besides, in test [6], the “Herbicidal effect Scirpus juncoides” value was 5 (Herbicidal effect/phytotoxicity was 90% or greater).
For `CCCOC(=CC(=O)OC)COc1cc(-c2c(Cl)n3n(c2=O)CCCC3)c(F)cc1Cl` (mixture of isomers) [Compound 2-13], the “Herbicidal effect Echinochloa oryzicola” value in test [1] is 5 (Herbicidal effect/phytotoxicity was 90% or greater). For the same compound, the “Herbicidal effect Monochoria vaginalis” value in test [2] is recorded as 5 (Herbicidal effect/phytotoxicity was 90% or greater). The “Herbicidal effect Eleocharis acicularis” value in test [3] is reported as 5 (Herbicidal effect/phytotoxicity was 90% or greater). Further, the “Herbicidal effect Broadleaf weed” value in test [4] is reported as 5 (Herbicidal effect/phytotoxicity was 90% or greater). The “Herbicidal effect Cyperus difformis” value in test [5] was 5 (Herbicidal effect/phytotoxicity was 90% or greater). In test [6], the “Herbicidal effect Scirpus juncoides” value is recorded as 5 (Herbicidal effect/phytotoxicity was 90% or greater).
With `C=CCOc1ccccc1Oc1cc(-c2c(Cl)n3n(c2=O)CCCC3)c(F)cc1Cl` [Compound 3-27], the “Herbicidal effect Echinochloa oryzicola” value in test [1] is recorded as 5 (Herbicidal effect/phytotoxicity was 90% or greater). The “Herbicidal effect Monochoria vaginalis” value in test [2] was 5 (Herbicidal effect/phytotoxicity was 90% or greater). For the same compound, the “Herbicidal effect Eleocharis acicularis” value in test [3] is reported as 5 (Herbicidal effect/phytotoxicity was 90% or greater). Also, the “Herbicidal effect Broadleaf weed” value in test [4] is 5 (Herbicidal effect/phytotoxicity was 90% or greater). Also, the “Herbicidal effect Cyperus difformis” value in test [5] is on record as 5 (Herbicidal effect/phytotoxicity was 90% or greater). The “Herbicidal effect Scirpus juncoides” value in test [6] was 5 (Herbicidal effect/phytotoxicity was 90% or greater).
As for `O=c1c(-c2ccc(Cl)cc2Cl)c(Cl)n2n1CCCC2` [Example 1-280], the “Herbicidal effect Echinochloa oryzicola” value in test [1] was 5 (Herbicidal effect/phytotoxicity was 90% or greater). The “Herbicidal effect Monochoria vaginalis” value in test [2] is listed as 5 (Herbicidal effect/phytotoxicity was 90% or greater). The “Herbicidal effect Eleocharis acicularis” value in test [3] was 5 (Herbicidal effect/phytotoxicity was 90% or greater). Also, the “Herbicidal effect Broadleaf weed” value in test [4] was 5 (Herbicidal effect/phytotoxicity was 90% or greater). In test [5], the “Herbicidal effect Cyperus difformis” value was 5 (Herbicidal effect/phytotoxicity was 90% or greater). Further, the “Herbicidal effect Scirpus juncoides” value in test [6] is given as 5 (Herbicidal effect/phytotoxicity was 90% or greater).
`O=c1c(-c2cc(Oc3cccc(O)c3)c(Cl)cc2F)c(Cl)n2n1CCCC2` [Compound 3-4]: in test [1], the “Herbicidal effect Echinochloa oryzicola” value is given as 5 (Herbicidal effect/phytotoxicity was 90% or greater). Further, the “Herbicidal effect Monochoria vaginalis” value in test [2] is recorded as 5 (Herbicidal effect/phytotoxicity was 90% or greater). For the same compound, the “Herbicidal effect Eleocharis acicularis” value in test [3] is recorded as 5 (Herbicidal effect/phytotoxicity was 90% or greater). Further, the “Herbicidal effect Broadleaf weed” value in test [4] is 5 (Herbicidal effect/phytotoxicity was 90% or greater). The “Herbicidal effect Cyperus difformis” value in test [5] was 5 (Herbicidal effect/phytotoxicity was 90% or greater). In addition, the “Herbicidal effect Scirpus juncoides” value in test [6] is listed as 5 (Herbicidal effect/phytotoxicity was 90% or greater).
On to `C=C(C)COc1cc(-c2c(Cl)n3n(c2=O)CCCC3)c(F)cc1F` [Example 1-106], for which, in test [1], the “Herbicidal effect Echinochloa oryzicola” value is listed as 5 (Herbicidal effect/phytotoxicity was 90% or greater). In test [2], the “Herbicidal effect Monochoria vaginalis” value was 5 (Herbicidal effect/phytotoxicity was 90% or greater). Further, in test [3], the “Herbicidal effect Eleocharis acicularis” value was 5 (Herbicidal effect/phytotoxicity was 90% or greater). For the same compound, the “Herbicidal effect Broadleaf weed” value in test [4] is listed as 5 (Herbicidal effect/phytotoxicity was 90% or greater). Besides, in test [5], the “Herbicidal effect Cyperus difformis” value is given as 5 (Herbicidal effect/phytotoxicity was 90% or greater). Also, the “Herbicidal effect Scirpus juncoides” value in test [6] is given as 5 (Herbicidal effect/phytotoxicity was 90% or greater).
For `CCOC(=O)C(Cl)Cc1cc(-c2c(Cl)n3n(c2=O)CCCC3)c(F)cc1Cl` (stereo not drawn) [Example 1-260], the “Herbicidal effect Echinochloa oryzicola” value in test [1] is listed as 5 (Herbicidal effect/phytotoxicity was 90% or greater). The “Herbicidal effect Monochoria vaginalis” value in test [2] is on record as 5 (Herbicidal effect/phytotoxicity was 90% or greater). Besides, in test [3], the “Herbicidal effect Eleocharis acicularis” value is listed as 5 (Herbicidal effect/phytotoxicity was 90% or greater). Besides, the “Herbicidal effect Broadleaf weed” value in test [4] is 5 (Herbicidal effect/phytotoxicity was 90% or greater). The “Herbicidal effect Cyperus difformis” value in test [5] was 5 (Herbicidal effect/phytotoxicity was 90% or greater). The “Herbicidal effect Scirpus juncoides” value in test [6] is recorded as 5 (Herbicidal effect/phytotoxicity was 90% or greater).
For the compound `CC1(COc2cc(-c3c(Cl)n4n(c3=O)CCCC4)c(F)cc2Cl)CC(c2ccccc2F)=NO1` (stereo not drawn) [Compound 4-3], in test [1], the “Herbicidal effect Echinochloa oryzicola” value is recorded as 5 (Herbicidal effect/phytotoxicity was 90% or greater). The “Herbicidal effect Monochoria vaginalis” value in test [2] is 5 (Herbicidal effect/phytotoxicity was 90% or greater). Besides, the “Herbicidal effect Eleocharis acicularis” value in test [3] was 5 (Herbicidal effect/phytotoxicity was 90% or greater). In addition, in test [4], the “Herbicidal effect Broadleaf weed” value is reported as 5 (Herbicidal effect/phytotoxicity was 90% or greater). Also, the “Herbicidal effect Cyperus difformis” value in test [5] is given as 5 (Herbicidal effect/phytotoxicity was 90% or greater). For the same compound, the “Herbicidal effect Scirpus juncoides” value in test [6] was 5 (Herbicidal effect/phytotoxicity was 90% or greater).
On to `C#CCN(C)c1cc(-c2c(Cl)n3n(c2=O)CCCC3)c(F)cc1Cl` [Example 5-68], for which the “Herbicidal effect Echinochloa oryzicola” value in test [1] was 5 (Herbicidal effect/phytotoxicity was 90% or greater). For the same compound, the “Herbicidal effect Monochoria vaginalis” value in test [2] is recorded as 5 (Herbicidal effect/phytotoxicity was 90% or greater). Besides, the “Herbicidal effect Eleocharis acicularis” value in test [3] is recorded as 5 (Herbicidal effect/phytotoxicity was 90% or greater). In addition, in test [4], the “Herbicidal effect Broadleaf weed” value is 5 (Herbicidal effect/phytotoxicity was 90% or greater). In addition, the “Herbicidal effect Cyperus difformis” value in test [5] is 5 (Herbicidal effect/phytotoxicity was 90% or greater). For the same compound, the “Herbicidal effect Scirpus juncoides” value in test [6] is listed as 5 (Herbicidal effect/phytotoxicity was 90% or greater).
Regarding `O=c1c(-c2ccc(Cl)cc2F)c(Cl)n2n1CCOCC2` [Example 1-129], the “Herbicidal effect Echinochloa oryzicola” value in test [1] was 5 (Herbicidal effect/phytotoxicity was 90% or greater). Moreover, in test [2], the “Herbicidal effect Monochoria vaginalis” value is 5 (Herbicidal effect/phytotoxicity was 90% or greater). In addition, the “Herbicidal effect Eleocharis acicularis” value in test [3] is listed as 5 (Herbicidal effect/phytotoxicity was 90% or greater). In addition, the “Herbicidal effect Broadleaf weed” value in test [4] is given as 5 (Herbicidal effect/phytotoxicity was 90% or greater). For the same compound, the “Herbicidal effect Cyperus difformis” value in test [5] is 5 (Herbicidal effect/phytotoxicity was 90% or greater). The “Herbicidal effect Scirpus juncoides” value in test [6] was 5 (Herbicidal effect/phytotoxicity was 90% or greater).
